Results reported in ChEMBL document CHEMBL4145686, “Discovery of a Potent and Selective Steroidal Glucocorticoid Receptor Antagonist (ORIC-101)” (J Med Chem, 2018).

Experiments:
Glucocorticoid receptor [1] = biological target: T1, Glucocorticoid receptor (Homo sapiens, UniProt P04150); experiment: Antagonist activity at human GR expressed in CHO-K1 cells assessed as reduction in dexamethasone-induced response incubated for 20 hrs by luciferase reporter gene assay; type: cell-based
T1 sequence (P04150 whole entry): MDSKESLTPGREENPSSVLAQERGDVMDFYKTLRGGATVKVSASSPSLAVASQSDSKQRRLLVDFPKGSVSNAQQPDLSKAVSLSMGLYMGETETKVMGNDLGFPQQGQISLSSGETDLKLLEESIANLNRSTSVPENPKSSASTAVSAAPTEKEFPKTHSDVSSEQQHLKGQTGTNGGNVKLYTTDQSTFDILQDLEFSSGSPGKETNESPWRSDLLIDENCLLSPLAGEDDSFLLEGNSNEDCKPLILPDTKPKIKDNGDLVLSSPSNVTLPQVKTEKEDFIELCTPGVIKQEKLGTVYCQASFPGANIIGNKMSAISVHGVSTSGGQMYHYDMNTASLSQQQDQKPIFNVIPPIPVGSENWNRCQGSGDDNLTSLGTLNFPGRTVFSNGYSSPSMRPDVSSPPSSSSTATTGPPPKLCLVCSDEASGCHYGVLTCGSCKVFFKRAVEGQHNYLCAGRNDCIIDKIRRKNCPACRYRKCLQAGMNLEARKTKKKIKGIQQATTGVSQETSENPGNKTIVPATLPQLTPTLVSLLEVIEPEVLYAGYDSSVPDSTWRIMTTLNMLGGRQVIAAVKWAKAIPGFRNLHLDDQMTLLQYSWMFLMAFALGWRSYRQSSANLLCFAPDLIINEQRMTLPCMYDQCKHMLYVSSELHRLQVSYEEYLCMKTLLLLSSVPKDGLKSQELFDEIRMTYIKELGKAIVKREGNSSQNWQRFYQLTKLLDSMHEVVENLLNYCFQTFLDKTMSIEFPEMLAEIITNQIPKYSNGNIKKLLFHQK

Glucocorticoid receptor [2] = biological target: T1, Glucocorticoid receptor; experiment: Agonist activity at human GR expressed in CHO-K1 cells incubated for 20 hrs by luciferase reporter gene assay; type: cell-based
[3] = biological target: T2, glucocorticoid receptor (GR) (Homo sapiens, UniProt P04150); experiment: Agonist activity at human GR expressed in CHO-K1 cells incubated for 20 hrs by luciferase reporter gene assay relative to dexamethasone; type: cell-based; conditions: CHO-K1 cells expressing human GR
T2 sequence (P04150 whole entry): T1 sequence (P04150 whole entry)

Androgen receptor = biological target: T3, Androgen receptor (Homo sapiens, UniProt P10275); experiment: Agonist activity at AR (unknown origin) expressed in human LNCaP cells incubated for 20 hrs by luciferase reporter gene assay; type: cell-based
T3 sequence (P10275 whole entry): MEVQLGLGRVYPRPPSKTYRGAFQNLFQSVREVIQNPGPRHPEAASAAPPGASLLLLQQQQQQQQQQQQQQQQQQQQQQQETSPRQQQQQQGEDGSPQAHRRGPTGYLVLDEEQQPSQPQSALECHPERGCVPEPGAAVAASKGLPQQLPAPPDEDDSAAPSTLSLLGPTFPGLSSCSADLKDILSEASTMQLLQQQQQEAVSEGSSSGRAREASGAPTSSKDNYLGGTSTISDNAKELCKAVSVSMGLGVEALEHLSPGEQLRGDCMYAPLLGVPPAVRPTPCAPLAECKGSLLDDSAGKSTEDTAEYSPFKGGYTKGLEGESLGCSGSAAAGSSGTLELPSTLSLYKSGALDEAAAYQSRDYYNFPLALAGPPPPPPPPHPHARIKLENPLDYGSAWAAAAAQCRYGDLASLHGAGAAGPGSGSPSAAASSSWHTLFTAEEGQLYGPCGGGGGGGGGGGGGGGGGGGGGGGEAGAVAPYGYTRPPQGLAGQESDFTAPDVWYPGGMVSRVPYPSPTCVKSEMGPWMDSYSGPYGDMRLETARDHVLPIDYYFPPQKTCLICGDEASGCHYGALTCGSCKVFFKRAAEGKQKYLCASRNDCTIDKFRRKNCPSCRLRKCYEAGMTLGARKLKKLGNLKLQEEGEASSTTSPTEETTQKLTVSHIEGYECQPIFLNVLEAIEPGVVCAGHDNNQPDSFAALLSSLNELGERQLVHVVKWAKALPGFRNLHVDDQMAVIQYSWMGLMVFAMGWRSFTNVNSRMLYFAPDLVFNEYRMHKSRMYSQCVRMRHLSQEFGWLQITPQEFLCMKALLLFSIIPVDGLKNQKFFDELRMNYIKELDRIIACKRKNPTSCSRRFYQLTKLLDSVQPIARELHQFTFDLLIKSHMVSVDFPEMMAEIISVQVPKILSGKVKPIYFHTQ

androgen receptor (AR) = biological target: T4, androgen receptor (AR) (Homo sapiens, UniProt P10275); experiment: Agonist activity at AR (unknown origin) expressed in human LNCaP cells incubated for 20 hrs by luciferase reporter gene assay relative to mifepristone; type: cell-based; conditions: human LNCaP cells expressing AR
T4 sequence (P10275 whole entry): T3 sequence (P10275 whole entry)

[4] = Clearance in rat at 0.5 mg/kg, iv; type: ADME, organism-based; conditions: in vivo
[5] = Volume of distribution at steady state in rat at 0.5 mg/kg, iv; type: ADME, organism-based; conditions: in vivo, read-out: Vdss
[6] = Half life in rat at 0.5 mg/kg, iv; type: ADME, organism-based; conditions: in vivo
[7] = Oral bioavailability in rat at 5 mg/kg; type: ADME, organism-based; conditions: in vivo
[8] = Cmax in rat at 5 mg/kg, po; type: ADME, organism-based; set-up: dose 5 mg/kg, route oral; conditions: in vivo
[9] = AUC in rat at 5 mg/kg, po; type: ADME, organism-based; conditions: in vivo

| Compound | IC50 (Glucocorticoid receptor [1]) [nM] | EC50 (Glucocorticoid receptor [2]) [nM] | Emax at 20 h [3] [%] | EC50 (Androgen receptor) [nM] | Emax at 20 h (androgen receptor (AR)) [%] | clearance [4] [mL/min/kg] | Vd [5] [L/kg] | half-life [6] [h] | bioavailability [7] [%] | Cmax [8] [ng/mL] | AUC [9] [ng·h/mL] |
| --- | --- | --- | --- | --- | --- | --- | --- | --- | --- | --- | --- |
| CN(C)c1ccc([C@H]2C[C@@]3(C)[C@@H](CC[C@@]3(O)C#CC(F)(F)F)[C@@H]3CCC4=CC(=O)CCC4=C32)cc1 | 11.2 | > 2500 | 2.4 | 54 | 117 | – | – | – | – | – | – |
| CC#C[C@]1(O)CC[C@H]2[C@@H]3CCC4=CC(=O)CCC4=C3[C@@H](c3cccc(N(C)C)c3)C[C@@]21C | 64 | > 2500 | 1.5 | > 2500 | 5.8 | – | – | – | – | – | – |
| CC(C)C#C[C@]1(O)CC[C@H]2[C@@H]3CCC4=CC(=O)CCC4=C3[C@@H](c3ccc(N(C)C)cc3)C[C@@]21C | 26 | > 2500 | 1.8 | > 2500 | 50 | – | – | – | – | – | – |
| CN(C)c1c(F)cc([C@H]2C[C@@]3(C)[C@@H](CC[C@@]3(O)C#CC(C)(C)C)[C@@H]3CCC4=CC(=O)CCC4=C32)cc1F | 43 | > 2500 | 1.3 | > 2500 | 8.8 | – | – | – | – | – | – |
| CC(C)c1ccc([C@H]2C[C@@]3(C)[C@@H](CC[C@@]3(O)C#CC(C)(C)C)[C@@H]3CCC4=CC(=O)CCC4=C32)cc1 | 16 | > 2500 | 1.5 | > 2500 | 25 | – | – | – | – | – | – |
| CC(C)(C)C#C[C@]1(O)CC[C@H]2[C@@H]3CCC4=CC(=O)CCC4=C3[C@@H](c3ccc(N4CCS(=O)(=O)CC4)cc3)C[C@@]21C | 16.7 | > 2500 | 1.8 | > 2500 | 23 | – | – | – | – | – | – |
| Cc1cc([C@H]2C[C@@]3(C)[C@@H](CC[C@@]3(O)C#CC(C)(C)C)[C@@H]3CCC4=CC(=O)CCC4=C32)ccc1N(C)C | 28 | > 2500 | 1.2 | > 2500 | 17 | – | – | – | – | – | – |
| CN(C)c1cc(F)c([C@H]2C[C@@]3(C)[C@@H](CC[C@@]3(O)C#CC(C)(C)C)[C@@H]3CCC4=CC(=O)CCC4=C32)c(F)c1 | 12.4 | > 2500 | 1.3 | > 2500 | 11 | – | – | – | – | – | – |
| CC#C[C@]1(O)CC[C@H]2[C@@H]3CCC4=CC(=O)CCC4=C3[C@@H](c3ccccc3)C[C@@]21C | 14.2 | 17.4 | 7 | > 2500 | 27 | – | – | – | – | – | – |
| COc1cc([C@H]2C[C@@]3(C)[C@@H](CC[C@@]3(O)C#CC(C)(C)C)[C@@H]3CCC4=CC(=O)CCC4=C32)ccc1N(C)C | 48 | > 2500 | 1 | > 2500 | 5.7 | – | – | – | – | – | – |
| Cc1ccc([C@H]2C[C@@]3(C)[C@@H](CC[C@@]3(O)C#CC(C)(C)C)[C@@H]3CCC4=CC(=O)CCC4=C32)cc1 | 16.1 | > 2500 | 1.5 | > 2500 | 16 | – | – | – | – | – | – |
| CCc1ccc([C@H]2C[C@@]3(C)[C@@H](CC[C@@]3(O)C#CC(C)(C)C)[C@@H]3CCC4=CC(=O)CCC4=C32)cc1 | 17.5 | > 2500 | 1.5 | > 2500 | 20 | 6.83 | 1.7 | 3.4 | 0 | – | – |
| CC(C)(C)C#C[C@]1(O)CC[C@H]2[C@@H]3CCC4=CC(=O)CCC4=C3[C@@H](c3ccc(N4CCCC4)cc3)C[C@@]21C | 19.5 | > 2500 | 1.2 | > 2500 | 13.3 | 4.67 | 1.5 | 3.6 | 0.7 | 21 | 167 |
| COC(C)(C)C#C[C@]1(O)CC[C@H]2[C@@H]3CCC4=CC(=O)CC[C@@H]4[C@H]3[C@@H](c3ccc(N(C)C)cc3)C[C@@]21C | 14.6 | > 2500 | 1.7 | > 2500 | 10.6 | 83.3 | 7.2 | 2.4 | 54 | 295 | 544 |
| CC#C[C@]1(O)CC[C@H]2[C@@H]3CCC4=CC(=O)CCC4=C3[C@@H](C3CCCCC3)C[C@@]21C | 18.1 | > 2500 | 9.3 | > 2500 | 26 | – | – | – | – | – | – |
| CC(C)(C)C#C[C@]1(O)CC[C@H]2[C@@H]3CCC4=CC(=O)CCC4=C3[C@@H](c3ccc(N4CCOCC4)cc3)C[C@@]21C | 13.3 | > 2500 | 1.5 | > 2500 | 18.7 | – | – | – | – | – | – |
| CCC#C[C@]1(O)CC[C@H]2[C@@H]3CCC4=CC(=O)CCC4=C3[C@@H](c3ccc(N(C)C)cc3)C[C@@]21C | 8.5 | > 2500 | 2.1 | 30 | 101 | – | – | – | – | – | – |
| CC(C)(C)C#C[C@]1(O)CC[C@H]2[C@@H]3CCC4=CC(=O)CCC4=C3[C@@H](c3ccc(C4(C)COC4)cc3)C[C@@]21C | 9.6 | > 2500 | 2.2 | > 2500 | 11 | 50 | 6.7 | 4.4 | 7.2 | 59 | 123 |
| CC#C[C@]1(O)CC[C@H]2[C@@H]3CCC4=CC(=O)CCC4=C3[C@@H](c3ccc(C(C)C)cc3)C[C@@]21C | 1.93 | > 2500 | 3.1 | 13 | 198 | – | – | – | – | – | – |
| COc1ccc([C@H]2C[C@@]3(C)[C@@H](CC[C@@]3(O)C#CC(C)(C)C)[C@@H]3CCC4=CC(=O)CCC4=C32)cc1 | 16.6 | > 2500 | 1.1 | > 2500 | 9.8 | – | – | – | – | – | – |
| CN(C)c1cccc([C@H]2C[C@@]3(C)[C@@H](CC[C@@]3(O)C#CC(C)(C)C)[C@@H]3CCC4=CC(=O)CCC4=C32)c1 | 205 | > 2500 | 1.3 | > 2500 | 7.5 | – | – | – | – | – | – |
| CC#C[C@]1(O)CC[C@H]2[C@@H]3CCC4=CC(=O)CCC4=C3[C@@H](CC)C[C@@]21C | > 5000 | 57 | 36 | > 2500 | 47 | – | – | – | – | – | – |
| CN(C)c1ccc([C@H]2C[C@@]3(C)[C@@H](CC[C@@]3(O)C#CC(C)(C)C)[C@@H]3CCC4=CC(=O)CC[C@@H]4[C@H]32)cc1 | 5.6 | > 2500 | 2.2 | 224 | 22 | – | – | – | – | – | – |
